The source of these data is paper PMC3288537 (ACS Chemical Biology, 2011).

SMILES strings stand for the structures.

This assay addresses T1, HePTP (Homo sapiens, UniProt P35236).
T1 sequence (P35236 1-360): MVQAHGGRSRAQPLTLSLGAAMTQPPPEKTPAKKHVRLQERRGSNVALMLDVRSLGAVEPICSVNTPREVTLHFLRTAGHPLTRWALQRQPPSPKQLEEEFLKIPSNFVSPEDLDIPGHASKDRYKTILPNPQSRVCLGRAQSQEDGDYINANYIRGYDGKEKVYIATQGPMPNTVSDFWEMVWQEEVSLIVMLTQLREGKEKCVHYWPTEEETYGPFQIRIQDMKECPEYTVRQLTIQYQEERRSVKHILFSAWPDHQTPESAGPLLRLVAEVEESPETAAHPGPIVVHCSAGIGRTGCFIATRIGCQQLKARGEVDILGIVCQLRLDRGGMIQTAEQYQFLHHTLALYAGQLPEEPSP
Nature of the assay: Dose-response OMFP phosphatase assay, HePTP. As to conditions: OMFP substrate. The format is biochemical.

`O=C(O)c1ccccc1` [benzoic acid, reference compound]: the “activity against HePTP (in words)” value was “did not inhibit”.
